# Measurements taken from ChEMBL document CHEMBL5465560, “Selectivity Literature for EUbOPEN Chemogenomic Library” (2024).
# Assays:
# [1] = target: Cyclin-dependent kinase 4/cyclin D1 (Homo sapiens) (UniProt P11802+P24385); test: (§1) Selectivity interaction (KinomeScan (DiscoverX)) EUB0000229b CDK4; assay type: protein-complex assay; conditions: at 10 µM
# [2] = target: CDK4/Cyclin D3 (Homo sapiens) (UniProt P11802+P30281); test: as §1; assay type: protein-complex assay; conditions: at 10 µM
# [3] = target: T1, Mitogen-activated protein kinase kinase kinase 2 (Homo sapiens) (UniProt Q9Y2U5); test: Selectivity interaction (ActivX KiNativ screen (ex vivo kinase selectivity in human PBMCs)) EUB0001619a MAP3K2; assay type: cell-based; conditions: PBMC, at 1 µM
# T1 sequence (whole entry): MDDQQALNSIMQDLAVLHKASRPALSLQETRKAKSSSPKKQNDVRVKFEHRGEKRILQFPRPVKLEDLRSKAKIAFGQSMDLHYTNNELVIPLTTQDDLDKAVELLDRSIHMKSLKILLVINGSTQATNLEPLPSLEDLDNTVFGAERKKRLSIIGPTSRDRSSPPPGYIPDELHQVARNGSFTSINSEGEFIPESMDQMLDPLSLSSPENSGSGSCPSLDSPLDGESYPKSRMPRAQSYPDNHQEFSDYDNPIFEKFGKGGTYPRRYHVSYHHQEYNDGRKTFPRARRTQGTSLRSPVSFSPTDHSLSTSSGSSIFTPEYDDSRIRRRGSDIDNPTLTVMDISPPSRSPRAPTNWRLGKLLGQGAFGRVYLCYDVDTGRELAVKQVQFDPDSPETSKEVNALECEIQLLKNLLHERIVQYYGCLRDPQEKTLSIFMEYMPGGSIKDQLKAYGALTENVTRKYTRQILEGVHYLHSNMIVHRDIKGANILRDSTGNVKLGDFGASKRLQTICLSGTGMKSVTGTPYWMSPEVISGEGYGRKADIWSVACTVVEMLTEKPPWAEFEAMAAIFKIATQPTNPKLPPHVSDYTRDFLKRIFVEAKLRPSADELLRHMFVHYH
# [4] = target: T2, Serine/threonine-protein kinase haspin (Homo sapiens) (UniProt Q8TF76); test: Selectivity interaction (KinomeScan (DiscoverX)) EUB0000607a GSG2; conditions: at 10 µM
# T2 sequence (whole entry): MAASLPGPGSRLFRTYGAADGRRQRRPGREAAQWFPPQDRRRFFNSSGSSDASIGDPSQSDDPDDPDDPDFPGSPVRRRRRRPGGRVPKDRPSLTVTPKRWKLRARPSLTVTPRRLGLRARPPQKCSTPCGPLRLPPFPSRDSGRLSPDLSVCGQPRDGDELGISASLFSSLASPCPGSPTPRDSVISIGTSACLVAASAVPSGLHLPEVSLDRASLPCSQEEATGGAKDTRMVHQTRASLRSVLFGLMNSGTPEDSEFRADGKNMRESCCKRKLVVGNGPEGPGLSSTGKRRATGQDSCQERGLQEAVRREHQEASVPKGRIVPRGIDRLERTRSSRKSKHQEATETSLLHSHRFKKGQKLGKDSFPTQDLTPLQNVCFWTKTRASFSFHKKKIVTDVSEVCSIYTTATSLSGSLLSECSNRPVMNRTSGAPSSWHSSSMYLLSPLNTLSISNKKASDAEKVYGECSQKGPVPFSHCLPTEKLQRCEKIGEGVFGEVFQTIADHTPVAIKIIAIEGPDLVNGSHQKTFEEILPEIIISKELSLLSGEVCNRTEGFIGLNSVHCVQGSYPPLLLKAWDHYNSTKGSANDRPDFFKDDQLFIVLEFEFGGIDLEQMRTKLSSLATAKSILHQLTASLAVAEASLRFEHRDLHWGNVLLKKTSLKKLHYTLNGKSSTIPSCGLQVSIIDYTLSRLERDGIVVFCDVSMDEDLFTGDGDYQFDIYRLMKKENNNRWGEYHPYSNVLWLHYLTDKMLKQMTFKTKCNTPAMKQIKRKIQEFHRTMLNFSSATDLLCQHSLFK
# [5] = target: T3, Eukaryotic elongation factor 2 kinase (Homo sapiens) (UniProt O00418); test: Selectivity interaction (Kinase panel (KiNativ target engagement assay in Jurkat cells)) EUB0001635a EEF2K; assay type: cell-based; conditions: Selectivity number of off-targets 0.0, Selectivity number of targets 233.0, Source Knowledge https://www.sciencedirect.com/science/article/pii/S2451945619300674?via%3Dihub, at 1 µM
# T3 sequence (whole entry): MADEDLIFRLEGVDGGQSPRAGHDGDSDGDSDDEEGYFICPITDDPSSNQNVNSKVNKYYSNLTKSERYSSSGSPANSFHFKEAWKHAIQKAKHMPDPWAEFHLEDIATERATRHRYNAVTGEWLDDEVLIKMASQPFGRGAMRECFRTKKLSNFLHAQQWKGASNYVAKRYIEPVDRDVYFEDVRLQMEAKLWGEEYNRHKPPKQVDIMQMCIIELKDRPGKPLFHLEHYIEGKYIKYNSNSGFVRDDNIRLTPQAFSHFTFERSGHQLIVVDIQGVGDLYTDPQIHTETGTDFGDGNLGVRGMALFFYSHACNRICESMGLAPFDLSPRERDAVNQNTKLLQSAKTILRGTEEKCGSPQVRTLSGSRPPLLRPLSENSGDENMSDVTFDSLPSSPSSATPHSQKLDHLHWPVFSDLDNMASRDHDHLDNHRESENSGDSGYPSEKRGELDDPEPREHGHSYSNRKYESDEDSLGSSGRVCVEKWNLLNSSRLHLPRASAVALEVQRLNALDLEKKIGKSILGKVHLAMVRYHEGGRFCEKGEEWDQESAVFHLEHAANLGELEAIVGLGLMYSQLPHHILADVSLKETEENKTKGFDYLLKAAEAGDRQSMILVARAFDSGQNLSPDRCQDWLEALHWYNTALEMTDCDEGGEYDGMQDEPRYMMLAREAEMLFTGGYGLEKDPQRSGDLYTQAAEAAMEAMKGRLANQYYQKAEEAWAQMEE
compound,measurement,setting,value
COc1cc(N(C)c2ccnc3ccc(C(F)(F)F)cc23)cc(OC)c1OC,% binding,[1],99%
same,% binding,[2],94%
N#Cc1cccc(-c2c[nH]c3ncnc(N4CCOCC4)c23)c1,% of inhibition,[3],15%
CNC(=O)Nc1ccc(-c2nc(N3CC4CCC(C3)O4)c3cnn(C4CCC5(CC4)OCCO5)c3n2)cc1,% of control,[4],100%
C=CC(=O)Nc1ccc(C(=O)Nc2[nH]nc3c2CN(C(=O)N[C@H](CN(C)C)c2ccccc2)C3(C)C)cc1,% of engagement,[5],-14.2%
